Laboratory results published in US4808587A, “5-substituted pyrido[2,3-d]pyrimidine-2,4-diones” (Nippon Zoki Pharmaceutical Co., Ltd., priority 1986, dated 1989).

Tested on: not listed separately
Assay: Acute toxicity test (oral, LD50)
Details: mouse, in vivo
Description: The test compounds were orally administered to groups of 5 ICR-strain male mice. LD50 value of the compound of the present invention was calculated by the LitchfieldWilcoxon's method based on mortality for 14 days after drug administration.

SMILES	LD50 at 336 h
Cn1c(=O)c2c(N)ccnc2n(C)c1=O [Compound 4, 5-amino-1,3-dimethylpyrido[2,3-d]pyrimidine-2,4-dione]	850 mg/kg
CCn1c(=O)c2c(N)ccnc2n(CC)c1=O [Compound 5, 5-amino-1,3-diethylpyrido[2,3-d]pyrimidine-2,4-dione]	> 1000 mg/kg
CNc1ccnc2c1c(=O)n(C)c(=O)n2C [Compound 7, 5-methylamino-1,3-dimethylpyrido[2,3-d]pyrimidine-2,4-dione]	1050 mg/kg
C=CCNc1ccnc2c1c(=O)n(C)c(=O)n2C [Compound 9, 5-allylamino-1,3-dimethylpyrido[2,3-d]pyrimidine-2,4-dione]	> 1000 mg/kg
CC(C)Nc1ccnc2c1c(=O)n(C)c(=O)n2C [Compound 10, 5-isopropylamino-1,3-dimethylpyrido[2,3-d]pyrimidine-2,4-dione]	850 mg/kg
Cn1c(=O)c2c(NO)ccnc2n(C)c1=O [Compound 11, 5-hydroxyamino-1,3-dimethylpyrido[2,3-d]pyrimidine-2,4-dione]	> 1000 mg/kg
Cn1c(=O)c2ccc(N)nc2n(C)c1=O [Compound 15, 7-amino-1,3-dimethylpyrido[2,3-d]pyrimidine-2,4-dione]	> 1200 mg/kg

Tested on: PCA (Passive Cutaneous Anaphylaxis) reaction
Assay: Anti-allergic effect: PCA (Passive Cutaneous Anaphylaxis) reaction in rats
Type: in vivo, Wister-strain male rats
Details: Rattus norvegicus, oral, 1 hour before antigen challenge, dye leakage at 620 nm
Description: PCA (Passive Cutaneous Anaphylaxis) reaction in rats was taken as an index to an anti-allergic effect of the compound of the present invention.
In order to perform sensitization, anti-DNP-Asc (dinitrophenylated Ascaris extracts) serum diluted with saline was injected intradermally at 4 sites on the shaved back of groups of 6 Wister-strain male rats (6 weeks of age). 1 hour after oral administration of the test drug, the mixture of equivalent amount of DNP-Asc (5 mg/ml) and 2% Evans blue were intravenously injected to generate PCA reaction. 30 minutes thereafter, rats were killed by decapitation and exsanguinated. The skin was opened in order to evaluate the leakage of blue dye. The obtained skin was dissolved in 2N potassium hydroxide, then 2N phosphoric acid and acetone were added thereto. The amount of dye was determined by measurement of absorbance at 620 nm after centrifugation.

SMILES	inhibition in vivo at 20 mg/kg
Cn1c(=O)c2cccnc2n(C)c1=O [Compound 2, 1,3-dimethylpyrido[2,3-d]pyrimidine-2,4-dione]	51.2%
Cn1c(=O)c2c(N)ccnc2n(C)c1=O [Compound 4, 5-amino-1,3-dimethylpyrido[2,3-d]pyrimidine-2,4-dione]	68.7%
CCn1c(=O)c2c(N)ccnc2n(CC)c1=O [Compound 5, 5-amino-1,3-diethylpyrido[2,3-d]pyrimidine-2,4-dione]	79.2%
CNc1ccnc2c1c(=O)n(C)c(=O)n2C [Compound 7, 5-methylamino-1,3-dimethylpyrido[2,3-d]pyrimidine-2,4-dione]	73.7%
CCn1c(=O)c2c(NC)ccnc2n(CC)c1=O [Compound 8, 5-methylamino-1,3-diethylpyrido[2,3-d]pyrimidine-2,4-dione]	76.4%
C=CCNc1ccnc2c1c(=O)n(C)c(=O)n2C [Compound 9, 5-allylamino-1,3-dimethylpyrido[2,3-d]pyrimidine-2,4-dione]	67.9%
CC(C)Nc1ccnc2c1c(=O)n(C)c(=O)n2C [Compound 10, 5-isopropylamino-1,3-dimethylpyrido[2,3-d]pyrimidine-2,4-dione]	86.6%
Cn1c(=O)c2c(NO)ccnc2n(C)c1=O [Compound 11, 5-hydroxyamino-1,3-dimethylpyrido[2,3-d]pyrimidine-2,4-dione]	74%
Cn1c(=O)c2c(O)ccnc2n(C)c1=O [Compound 14, 5-hydroxy1,3-dimethylpyrido[2,3-d]pyrimidine-2,4-dione]	49.9%
Cn1c(=O)c2ccc(N)nc2n(C)c1=O [Compound 15, 7-amino-1,3-dimethylpyrido[2,3-d]pyrimidine-2,4-dione]	68.7%
Cn1c(=O)c2cc(N)cnc2n(C)c1=O [Compound 17, 6-amino-1,3-dimethylpyrido[2,3-d]pyrimidine-2,4-dione]	56.2%
Cn1c(=O)c2[nH]cnc2n(C)c1=O [Theophylline, reference compound]	57.9%
